Measurements as given in patent US8551956B2, “Compositions containing peptides with non-natural amino acids and methods of use” (Avon Products, Inc., priority 2006, dated 2013).

System: Fibronectin
Test: Stimulation of fibronectin production in Normal Human Dermal Fibroblasts-Adult, competitive inhibition ELISA of conditioned medium
Assay type: cell-based
Conditions: in vitro, concentration not given
Procedure: Normal Human Dermal Fibroblasts-Adult (Cascade Biologics) were cultured in 12-well tissue culture treated plates and treated for 72 hours in the presence or absence of test actives. Following incubation, the conditioned medium from each treatment was collected in a 1.7 mL microcentrifuge tube and frozen at −80° C. for subsequent analysis. The assay was in the format of a competitive inhibition ELISA.
Human fibronectin was pre-coated on the wells except for one row, which served as a reference. Standards and samples were pre-incubated with polyclonal rabbit antibody to human fibronectin. The polyclonal antibody was bound to the fibronectin in the standard dilutions, and in the sample, if present. The mixture was then transferred to the human fibronectin-coated plate. Free rabbit anti-human fibronectin was bound to the fibronectin on the plate. Goat anti-rabbit IgG HRP-conjugate reacted with bound rabbit anti-fibronectin. When HRP substrate was added, a blue color developed. The reaction was stopped by the addition of an acid, changing the color to yellow. This color was quantitated using a microplate reader set at 450 nm. The intensity of the color was inversely proportional to the amount of fibronectin in the original sample.

Structure (SMILES): NCCCC[C@H](N)C(=O)NCCCCC(=O)NCCCC[C@H](N)C(=O)O [KavaK]
- Fibronectin production, more compared to untreated control fibroblasts: 28%
